Experimental data reported in patent US9944700B2, “Notch2 binding molecules for treating respiratory diseases” (NOVARTIS AG, priority 2013, dated 2018).

How the values were obtained:
[1] = tested on: Human airway basal cells grown in 3D; assay: 3D bronchosphere cultures treated with Notch receptor-specific blocking antibodies, qPCR of cell type markers; format: cell-based
Procedure: (§1) Human bronchial epithelial (HBE) cells and culture media were obtained from Lonza. Air-liquid interface cultures using passage 2 (P2) cells were performed as previously described (Danahay, H. et al., American journal of physiology. Lung cellular and molecular physiology 282, L226-236 (2002)). For three-dimensional culturing of HBE cells, P1 cells were trypsinized and resuspended (30,000 cells/ml) in HBE differentiation media containing 5% growth factor-reduced Matrigel (BD Biosciences). 20 μl of suspension was plated in each well of a 384-well plate (Greiner) pre-coated with 10 μl of a 25% solution of Matrigel (BD Biosciences) in HBE differentiation media. Wells were fed or treated at day 2 and day 8 of culture by adding 30 μl of differentiation media containing the appropriate treatment. Three-dimensional cultures were analyzed at the time points indicated.
RNA was isolated from 3D bronchosphere cultures with Trizol (Invitrogen), using manufacturer's specifications. To isolate RNA from mouse tissue, approximately 20 mg of tissue was placed in a 1.5 ml eppendorf tube with 1 ml of Buffer RLT Plus (Qiagen). A 5 mm stainless steel bead (Qiagen) was added to the tube, and the tissue was sheared using a Tissue Lyser II (Qiagen). RNA from the sheared tissue was purified using the RNeasy Plus Mini Kit (Qiagen), using manufacturer's specifications. TaqMan Reverse Trascription Reagents (Invitrogen) were used to generate cDNA from 1 μg of total RNA. Quantitative PCR was performed on a ViiA7 Real-Time PCR System (Applied Biosystems), using 40 ng of cDNA per reaction with the following Taqman probes (Applied Biosystems): MUC5AC, Hs01365601_m1; MUC5B, Hs00861588_m1; FOXA3, Hs00270130_m1; FOXJ1, Hs00230964_m1; DNAI2, Hs01001544_m1; TP63, Hs00978340_m1; ITGA6, Hs01041011_m1; GAPDH, Hs99999905_m1; Muc5ac, Mm012718_m1; Foxj1, Mm012367279_m1; Trp63, Mm00495788_m1; Gapdh, Mm99999915_g1. […]

[2] = tested on: Human airway basal cells grown in 3D; assay: IL-13-driven goblet cell metaplasia in 3D bronchospheres, qPCR of cell type markers; format: cell-based
Procedure: as §1
RNA was isolated from 3D bronchosphere cultures with Trizol (Invitrogen), using manufacturer's specifications. […] Quantitative PCR was performed on a ViiA7 Real-Time PCR System (Applied Biosystems), using 40 ng of cDNA per reaction with the following Taqman probes (Applied Biosystems): MUC5AC, Hs01365601_m1; MUC5B, Hs00861588_m1; FOXA3, Hs00270130_m1; FOXJ1, Hs00230964_m1; DNAI2, Hs01001544_m1; TP63, Hs00978340_m1; ITGA6, Hs01041011_m1; GAPDH, Hs99999905_m1; Muc5ac, Mm012718_m1; Foxj1, Mm012367279_m1; Trp63, Mm00495788_m1; Gapdh, Mm99999915_g1.
In order to understand if neutralizing Notch2 could prevent goblet cell metaplasia, a hallmark of several airway diseases including asthma, cystic fibrosis, and COPD, anti-Notch2 antibodies were tested for their effect on IL-13-driven goblet cell metaplasia in 3D bronchospheres. Human airway basal cells were grown in 3D in the presence of vehicle control or IgG, with or without 1 ng/ml IL-13, or increasing concentrations of α-N2 D3 or 59R5 antibodies together with 1 ng/ml of IL-13, and analyzed by qPCR for the expression levels of the indicated goblet cell markers (FIG. 5a), ciliated cell markers (FIG. 5b), and basal cell markers (FIG. 5c).

[3] = tested on: Human bronchial epithelial (HBE) cells; assay: IL-13-driven goblet cell metaplasia in ALI cultures; format: cell-based; details: ALI cultures (results not shown)
Procedure: as §1, with “Wells were fed or treated at day 2 and day 8 of culture by adding 30 μl of differentiation media containing the appropriate treatment.” left out
Immunofluorescence of HBEC bronchospheres was performed as described previously for MCF10A cysts (Debnath, J. et al., Methods 30, 256-268 (2003) with the following modifications. After incubation with fluorescence-conjugated secondary antibodies, DNA was stained with a 1:1 mix of PBS and ProLong gold antifade containing DAPI. Confocal microscopy was performed at room temperature on a microscope (Zeiss LSM510 Meta) using an EC Plan-Neofluar 10×/0.30 dry objective (Zeiss), an EC Plan-Neofluor 20×/0.5 dry objective (Zeiss), a C-Apochromat 40×/1.2 W corr (Zeiss), or a C-Apochromat 63×/1.2 W Corr objective (Zeiss). […]

[4] = tested on: IL-13 driven goblet cell metaplasia; assay: IL-13 mouse model, co-administration of anti-Notch2 antibodies; format: in vivo
Procedure: RNA was isolated from 3D bronchosphere cultures with Trizol (Invitrogen), using manufacturer's specifications. To isolate RNA from mouse tissue, approximately 20 mg of tissue was placed in a 1.5 ml eppendorf tube with 1 ml of Buffer RLT Plus (Qiagen). A 5 mm stainless steel bead (Qiagen) was added to the tube, and the tissue was sheared using a Tissue Lyser II (Qiagen). RNA from the sheared tissue was purified using the RNeasy Plus Mini Kit (Qiagen), using manufacturer's specifications. TaqMan Reverse Trascription Reagents (Invitrogen) were used to generate cDNA from 1 μg of total RNA. Quantitative PCR was performed on a ViiA7 Real-Time PCR System (Applied Biosystems), using 40 ng of cDNA per reaction with the following Taqman probes (Applied Biosystems): MUC5AC, Hs01365601_m1; MUC5B, Hs00861588_m1; FOXA3, Hs00270130_m1; FOXJ1, Hs00230964_m1; DNAI2, Hs01001544_m1; TP63, Hs00978340_m1; ITGA6, Hs01041011_m1; GAPDH, Hs99999905_m1; Muc5ac, Mm012718_m1; Foxj1, Mm012367279_m1; Trp63, Mm00495788_m1; Gapdh, Mm99999915_g1.
Female Balb/c mice (20-25 g) were obtained from Charles River (Morgate, UK). Mice were housed under specific pathogen free conditions and were provided with food and water ad libitum. Experiments were performed in accordance with the UK Animals Scientific Procedures Act 1986.
Mice received 0.5 μg of recombinant mouse IL-13 (Ebiosciences, UK) or phosphate-buffered saline (PBS) intranasally on 3 consecutive (days 1, 2, 3). Mice received either 20 mg/kg neutralizing antibody against Notch2 (α-N2 D3 or α-N2 59R5) or control IgG, or PBS intraperitoneally 2 hours before intranasal challenge with either IL-13 or PBS, on days 1 and 3 only. Mice were euthanized 24 hours after the final IL-13 administration. The left lungs were excised, inflated with 10% neutral buffered formalin (NBF) and preserved in NBF. Lungs were embedded in paraffin wax and lung sections were obtained for each animal. Sections were stained with Periodic Acid-Schiff (PAS) stain for mucus.
PAS positive staining was quantified in lung sections using Definiens Image Analysis software. Two distinct lung sections were analyzed per mouse and the total area of PAS positive staining within the sections was determined. The PAS positive staining was normalized to the area of tissue analyzed and represented as ‘Relative Area PAS Positive Mucus (%)’.
Data are expressed as mean±SEM. Statistical significance was determined using a parametric one way ANOVA and Dunnetts post-test. GraphPad Prism (version 5.04) was used to generate graphs and perform statistical analysis. ***p<0.001 denotes statistically significant difference from relevant isotype control group.

For “59R5: anti-Notch2 antagonist IgG1 antibody, heavy chain SEQ ID NO: 5, light chain SEQ ID NO: 6”, the “effect on basal cell markers p63 and ITGA6” value ([1]; FIG. 4c) was “Neither antibody showed any significant effect”, the “goblet cell formation: expression of goblet cell markers MUC5AC, MUC5B and FOXA3” value ([1]; compared with IgG control or anti-Notch1 / anti-Notch3 antibodies, FIG. 4a) was “decreased” and the “ciliated cell formation: expression of ciliated cells markers FOXJ1 and DNAI2” value ([1]; compared with IgG control or anti-Notch1 / anti-Notch3 antibodies, FIG. 4b) was “increasing”. For the same substance, the “IL-13-driven goblet cell metaplasia (expression of goblet cell markers MUC5AC, MUC5B and FOX3A)” value ([2]; 1 ng/ml IL-13, increasing antibody concentrations, qPCR, FIG. 5a) was “completely inhibited”, the “ciliated cells function (expression of ciliated cell markers FOXJ1 and DNAI2)” value ([2]; 1 ng/ml IL-13, qPCR, FIG. 5b) was “partially restored” and the “effect on basal cells markers p63 and ITGA6” value ([2]; 1 ng/ml IL-13, qPCR, FIG. 5c) was “No effect”. The “IL-13-driven goblet cell metaplasia” value [3] was “completely inhibited”, the “effect on basal cell marker Trp63, qPCR of whole lung tissue” value ([4]; 20 mg/kg i.p. days 1 and 3, FIG. 6e) was “no effect” and the “ciliated cell marker Foxj1, qPCR of whole lung tissue” value ([4]; 20 mg/kg i.p. days 1 and 3, FIG. 6d) was “concomitant increase”. For the same substance, the “Muc5ac expression levels, qPCR of whole lung tissue RNA” value ([4]; 20 mg/kg i.p. days 1 and 3, confirms reduced goblet cell metaplasia, FIG. 6c) was “verified this observation” and the “IL-13 driven goblet cell metaplasia (PAS staining of lung sections)” value ([4]; Balb/c mice, 20 mg/kg antibody i.p. 2 hours before intranasal IL-13, days 1 and 3, FIGS. 6a, 6b) was “completely blocked”.
